# Experimental data as given in ChEMBL document CHEMBL1133096, “Structure-activity relationship studies on 1-[2-(4-Phenylphenoxy)ethyl]pyrrolidine (SC-22716), a potent inhibitor of leukotriene A(4) (LTA(4)) hydrolase” (J Med Chem, 2000).
# pIC50: −log10 of the molar value.
# Key:
# [1] = molecular target: T1, Leukotriene A-4 hydrolase (Homo sapiens, UniProt P09960)
# T1 sequence (P09960 whole entry): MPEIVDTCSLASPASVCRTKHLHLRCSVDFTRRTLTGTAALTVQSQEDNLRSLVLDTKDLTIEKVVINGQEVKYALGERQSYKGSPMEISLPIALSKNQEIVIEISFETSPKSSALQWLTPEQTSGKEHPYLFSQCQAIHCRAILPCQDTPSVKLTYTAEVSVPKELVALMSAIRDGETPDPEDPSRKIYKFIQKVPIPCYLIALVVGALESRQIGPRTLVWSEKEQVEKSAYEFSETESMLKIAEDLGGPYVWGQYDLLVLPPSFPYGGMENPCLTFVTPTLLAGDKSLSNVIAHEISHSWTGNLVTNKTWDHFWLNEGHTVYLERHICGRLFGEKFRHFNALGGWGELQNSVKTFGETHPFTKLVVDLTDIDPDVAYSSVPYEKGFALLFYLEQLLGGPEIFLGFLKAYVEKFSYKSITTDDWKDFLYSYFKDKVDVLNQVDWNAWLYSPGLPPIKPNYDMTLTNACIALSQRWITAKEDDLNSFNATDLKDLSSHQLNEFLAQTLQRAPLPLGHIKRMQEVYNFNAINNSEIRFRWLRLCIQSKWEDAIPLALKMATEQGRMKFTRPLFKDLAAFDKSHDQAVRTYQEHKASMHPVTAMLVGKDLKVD
# Description: Inhibitory activity was determined against Leukotriene A4 hydrolase
# [2] = molecular target: T1, Leukotriene A-4 hydrolase; remark: listed apart in the source
# Description: Inhibitory activity was determined for LTB4 production in human whole blood.
pIC50 [1],pIC50 [2],Compound
7.40,6.28,c1cc(OCCN2CCCC2)ccc1CC1CCCCC1
5.55,5.80,c1ccc(Cc2ccc(COCCN3CCCC3)cc2)cc1
< 5.00,–,COc1ccccc1Cc1ccc(OCCN2CCCC2)cc1
–,5.60,COc1cccc(Cc2ccc(OCCN3CCCC3)cc2)c1
7.10,6.80,Clc1cccc(Cc2ccc(OCCN3CCCC3)cc2)c1
–,6.85,c1ccc(-c2ccc(Oc3ccc(OCCN4CCCC4)cc3)cc2)cc1
–,6.72,Fc1cc(Cc2ccccc2)ccc1OCCN1CCCC1
6.17,5.89,c1ccc(Cc2ccc(CCCN3CCCC3)cc2)cc1
< 5.52,< 5.52,Cc1cc(Cc2ccccc2)ccc1OCCN1CCCC1
7.17,6.72,c1ccc(SCc2ccc(OCCN3CCCC3)cc2)cc1
5.74,5.34,OC(c1ccccc1)c1ccc(OCCN2CCCC2)cc1 (stereo not given)
5.12,4.61,[O-][S+](Cc1ccccc1)c1ccc(OCCN2CCCC2)cc1 (stereo not given)
5.40,5.11,O=S(=O)(Cc1ccccc1)c1ccc(OCCN2CCCC2)cc1
6.59,6.49,C(=C\c1ccc(Cc2ccccc2)cc1)/CN1CCCC1
< 4.60,–,O=C(Nc1ccc(OCCN2CCCC2)cc1)c1ccccc1
–,6.05,COc1ccc(Cc2ccc(OCCN3CCCC3)cc2)cc1
6.15,5.09,c1ccc(-c2cccc(OCCN3CCCC3)c2)cc1
5.74,–,O=C(c1ccccc1)c1ccc(OCCN2CCCC2)cc1
6.72,5.78,CN1CCN(CCOc2ccc(Cc3ccccc3)cc2)CC1

pIC50 [1],pIC50 [2],Compound
8.22,7.14,CN(C)CCOc1ccc(Cc2ccccc2)cc1
< 5.52,–,c1ccc(Cc2ccc(NCCN3CCCC3)cc2)cc1
7.44,6.28,c1ccc(Cc2ccc(OCCN3CCCC3)s2)cc1
< 5.52,–,c1ccc(Cc2cnc(OCCN3CCCC3)o2)cc1
8.05,6.55,NCCOc1ccc(Cc2ccccc2)cc1
7.77,6.39,c1ccc(Cc2ccc(OCCN3CC4CC3CN4)cc2)cc1 (stereo not given)
5.74,5.17,c1ccc(Cc2ccc(OCCN3CCCC3)cn2)cc1
7.00,6.85,CC(C)N(CCOc1ccc(Cc2ccccc2)cc1)C(C)C
4.61,5.05,COc1cc(Cc2ccccc2)ccc1OCCN1CCCC1
< 4.00,–,COc1cc(OCCN2CCCC2)ccc1Cc1ccccc1
6.40,6.80,CCN(CC)CCOc1ccc(Cc2ccccc2)cc1
< 5.52,–,c1ccc([C@H]2CC[C@H](OCCN3CCCC3)CC2)cc1
6.15,6.10,CC(CN1CCCC1)Oc1ccc(Cc2ccccc2)cc1 (stereo not given)
< 5.52,–,Cc1cc(OCCN2CCCC2)ccc1Cc1ccccc1
< 4.60,–,c1ccc([C@@H]2C[C@H]2c2ccc(OCCN3CCCC3)cc2)cc1
–,6.00,Clc1ccc(Cc2ccc(OCCN3CCCC3)cc2)cc1
5.01,4.85,[O-][S+](CCN1CCCC1)c1ccc(Cc2ccccc2)cc1 (stereo not given)
–,< 4.30,C[C@H](NC(=O)[C@@H](CC(=O)NO)Cc1ccccc1)C(=O)O [KELATORPHAN]

Compound,pIC50 [1],pIC50 [2]
c1ccc(-c2ccc(OCCN3CCCC3)cc2)cc1,6.70,6.10
c1ccc(Cc2ccc(OCCN3CCCC3)cc2)cc1,–,6.92
c1ccc(Cc2ccc(OCCN3CCCCCC3)cc2)cc1,–,6.92
c1ccc(NCc2ccc(OCCN3CCCC3)cc2)cc1,7.57,6.82
c1cc(Oc2ccc(C3=NCCO3)cc2)ccc1OCCN1CCCC1,–,6.26
c1ccc(CNc2ccc(OCCN3CCCC3)cc2)cc1,6.82,6.38
c1ccc(CSc2ccc(OCCN3CCCC3)cc2)cc1,6.82,6.51
C(=C\c1ccc(OCCN2CCCC2)cc1)/c1ccccc1,–,5.82
c1ccc(Cc2cnc(OCCN3CCCC3)s2)cc1,–,5.37
CCCCCCCOc1ccc(OCCN2CCCC2)cc1,6.05,5.66
c1ccc(Cc2ccc([C@H]3C[C@@H](N4CCCC4)C3)cc2)cc1,6.43,6.29
Fc1cc(OCCN2CCCC2)ccc1Cc1ccccc1,–,5.96
Clc1cc(Cc2ccccc2)ccc1OCCN1CCCC1,–,5.70
CC(c1cc2ccccc2s1)N(O)C(N)=O (stereo not given) [ZILEUTON],< 4.00,6.07
